Source: ChEMBL document CHEMBL2069220, “Targeting peroxisome proliferator-activated receptors (PPARs): development of modulators” (J Med Chem, 2012)
One block for each compound: values may come before it.

Columns and labels:
Homo sapiens [1] = species: Homo sapiens; test: Selectivity ratio for PPRalpha over PPRgamma
Homo sapiens [2] = species: Homo sapiens; test: Selectivity ratio for PPRbeta/delta over PPRgamma
[3] = target: T1, Peroxisome proliferator-activated receptor gamma (Homo sapiens, UniProt P37231); test: Binding affinity to PPARgamma
T1 sequence (P37231 whole entry): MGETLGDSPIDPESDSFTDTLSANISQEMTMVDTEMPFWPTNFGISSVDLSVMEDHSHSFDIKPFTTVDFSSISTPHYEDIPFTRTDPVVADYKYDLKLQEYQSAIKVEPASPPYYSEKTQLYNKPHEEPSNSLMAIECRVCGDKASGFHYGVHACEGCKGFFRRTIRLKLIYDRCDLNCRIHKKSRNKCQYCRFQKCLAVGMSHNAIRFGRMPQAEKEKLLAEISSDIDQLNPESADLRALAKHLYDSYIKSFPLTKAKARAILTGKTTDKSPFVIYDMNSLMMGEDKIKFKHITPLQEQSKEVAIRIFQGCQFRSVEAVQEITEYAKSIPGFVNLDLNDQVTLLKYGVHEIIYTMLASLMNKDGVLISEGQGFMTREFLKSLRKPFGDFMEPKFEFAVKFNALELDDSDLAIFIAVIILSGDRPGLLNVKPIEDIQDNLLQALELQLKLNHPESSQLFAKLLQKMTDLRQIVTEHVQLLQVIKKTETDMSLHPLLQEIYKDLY

Homo sapiens [4] = species: Homo sapiens; test: Selectivity ratio for human PPRalpha over human PPRbeta/delta
Mus musculus [5] = species: Mus musculus; test: Selectivity ratio for mouse PPRgamma to mouse PPRbeta/delta
Homo sapiens [6] = species: Homo sapiens; test: Selectivity ratio for human PPRgamma over human PPRbeta/delta
Mus musculus [7] = species: Mus musculus; test: Selectivity ratio for mouse PPRalpha over mouse PPRbeta/delta
[8] = target: T2, Peroxisome proliferator-activated receptor alpha (Homo sapiens, UniProt Q07869); test: Agonist activity at PPARalpha; type: functional
T2 sequence (Q07869 whole entry): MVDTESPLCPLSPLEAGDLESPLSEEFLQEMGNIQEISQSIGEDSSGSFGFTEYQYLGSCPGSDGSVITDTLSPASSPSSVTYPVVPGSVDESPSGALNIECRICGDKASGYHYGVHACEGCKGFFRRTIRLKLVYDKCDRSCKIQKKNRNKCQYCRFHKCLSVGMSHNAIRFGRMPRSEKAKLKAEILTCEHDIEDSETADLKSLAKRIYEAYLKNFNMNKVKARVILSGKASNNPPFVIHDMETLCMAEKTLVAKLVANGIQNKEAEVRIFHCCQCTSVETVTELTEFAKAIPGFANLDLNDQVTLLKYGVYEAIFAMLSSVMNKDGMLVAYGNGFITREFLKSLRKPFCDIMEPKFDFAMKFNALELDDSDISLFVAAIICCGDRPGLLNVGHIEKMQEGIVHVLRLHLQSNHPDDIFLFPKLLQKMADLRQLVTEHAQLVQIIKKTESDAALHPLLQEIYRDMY

Selectivity ratio (Homo sapiens [1]): > 1000 | Selectivity ratio (Homo sapiens [2]): > 1000
SMILES: CN(CCOc1ccc(C[C@H](Nc2ccccc2C(=O)c2ccccc2)C(=O)O)cc1)c1ccccn1

Kd [3]: 2000 nM
SMILES: CC/C=C\C/C=C\C/C=C\C/C=C\C/C=C\CCCC(=O)O [ICOSAPENT]

Selectivity ratio (Homo sapiens [4]): > 100 | Selectivity ratio (Mus musculus [5]): > 100 | Selectivity ratio (Homo sapiens [6]): > 100 | Selectivity ratio (Mus musculus [7]): > 100
SMILES: CCCc1c(OCCCOc2ccc(OCC(=O)O)cc2)ccc(C(C)=O)c1O

Selectivity ratio (Homo sapiens [1]): > 1000 | Selectivity ratio (Homo sapiens [2]): > 1000
SMILES: COC(=O)c1ccccc1N[C@@H](Cc1ccc(OCCc2nc(-c3ccccc3)oc2C)cc1)C(=O)O

Kd [3]: 2000 nM
SMILES: CCCCC/C=C\C=C\C(O)CCCCCCCC(=O)O (stereo not drawn)

EC50 [8]: 60 nM
SMILES: CC(C)(Oc1ccc(CCOc2ccc(/C=C/C(=O)c3cc(Cl)ccc3O)cc2)cc1)C(=O)O

Kd [3]: 2000 nM
SMILES: CCCCC/C=C/C=C1/C(=O)C=C[C@@H]1C/C=C\CCCC(=O)O

Kd [3]: 2000 nM
SMILES: CCCCCC(O)/C=C\C=C/CCCCCCCC(=O)O (stereo not drawn)
